Data from PMC9785202, “Changes in Disposition of Ezetimibe and Its Active Metabolites Induced by Impaired Hepatic Function: The Influence of Enzyme and Transporter Activities” (Pharmaceutics, 2022).
Read-outs that look alike come from different tables or passages of the source.

Experiments:
[1] = Pharmacokinetics after intravenous or oral administration of 10 mg/kg EZE to control and CCl4-induced rats; type: in vivo; settings: for AUC(0-t) / half-life / Cmax at 5 min / Cmax / Tmax: Sprague-Dawley, rat, plasma, 10 mg/kg; for Cmax at 5 min: read-out: Cmax (* plasma concentration at 5 min after intravenous injection)
Experimental: Animals were fasted for 12 h with free access to water before the experiments. EZE was administered orally (prepared in 0.5% carboxymethylcellulose sodium) or intravenously (dissolved in 10% dimethyl sulfoxide, 10% tween-80, and 80% sterile H2O) to CCl4-induced rats (n = 5) and control rats (n = 5) at 10 mg/kg. Blood samples were collected from the retro-orbital venous plexus before administration (0 h), at 5, 15, and 30 min, and at 1, 2, 4, 6, 8, 12, 24, and 48 h after administration in tubes containing EDTA-2K. Plasma samples were harvested by centrifugation at 11,600 g for 5 min at 4 °C and then stored at −80 °C until further analysis.
(§1) A 25.0 μL aliquot of each sample and 25.0 μL of internal standard (50.0 ng/mL EZE-d4) were mixed with 100 μL of acetonitrile. After the samples were vortexed and centrifugated at 2250 g for 15 min, the supernatants were used to measure EZE and its metabolites by LC-MS/MS.
(§2) WinNonlin version 6.1 (Pharsight Corp., Cary, NC, USA) was used to calculate the pharmacokinetic parameters in a non-compartmental model. Statistical comparisons between the two groups were evaluated using a Student’s two-tailed unpaired t-test or the nonparametric Mann–Whitney test in GraphPad Prism (version 8.0, GraphPad Software Inc, SanDiego, CA, USA). A value of p < 0.05 was considered significant. All data were presented as the mean ± S.D. (n ≥ 3).

[2] = Portal vein and femoral vein plasma pharmacokinetics after oral EZE; type: in vivo, rats; settings: oral 10 mg/kg EZE; for AUC(0-t): Sprague-Dawley, rat, po, 10 mg/kg
Experimental: To investigate changes due to the first-pass metabolism and biliary excretion during liver disease, CCl4-induced rats (n = 5) and control rats (n = 5) were anesthetized and the hepatic portal and femoral veins were cannulated with PE-50 polyethylene tubing. EZE was orally administered to rats at 10 mg/kg. Blood samples were collected simultaneously from the hepatic portal and femoral veins before administration (0 h), at 5, 15, and 30 min, and at 1, 2, 4, 6, 8, 12, 24, and 48 h after administration. Plasma samples were harvested as previously described.
as §1, §2

UGTs = experiment: Incubation of EZE with liver S9 fractions of control and CCl4-induced rats (glucuronidation); type: in vitro ADME, rat; settings: 60 min
Experimental: One portion of the rat liver tissue was homogenized in a 5-fold volume of ice-cold phosphate buffer (including 250 mM sucrose, 10 mM Tris-HCl, and 1 mM EDTA-2Na, pH 7.4) and centrifugated at 9000 g for 20 min. After centrifugation, the supernatant was collected as the S9 fraction and stored at −80 °C.
To evaluate the effect of hepatic impairment on the hepatic metabolism of EZE, 0.3 μM, 3 μM, and 30 μM EZE were incubated with rat liver S9 fractions (2 mg of protein/mL) at 37 °C for 60 min in the Tris-HCl-buffered system (100 mM, pH 7.4), consisting of UDPGA (1 mM), MgCl2 (10 mM), and alamethicin (25 μg/mL). To investigate the effect of bile acids on the metabolism of EZE in the liver, 3 μM EZE was incubated with rat or human liver S9 fractions (2 mg of protein/mL) at 37 °C for 60 min in the Tris-HCl-buffered system with or without bile acids at 1, 10, and 100 μM. The total volume of the incubation system was 100 μL. The reactions were terminated by adding 100 μL of ice-cold acetonitrile. Samples were stored at −20 °C until analysis. EZE and EZE-Ph were detected by liquid chromatography with tandem mass spectrometry (LC-MS/MS).

rat primary hepatocytes = experiment: Uptake of EZE and EZE-Ph by rat primary hepatocytes; type: in vitro ADME; settings: 10 μM, 10 min, 37 °C vs 4 °C
Experimental: Rat primary hepatocytes were isolated from male SD rats as previously described [34]. Fresh rat hepatocytes (120,000 per well) were cultured in Williams’ E medium (containing 0.1 μM dexamethasone, 5% fetal bovine serum, 1% penicillin G/streptomycin, 1% GlutaMAX-I, and 1% insulin–transferrin–selenium) on collagen I-coated 48-well plates. Rat hepatocytes cultured for 4 h under a carbogen atmosphere were directly used for uptake assays.
The hepatocytes were rinsed three times with HBSS (37 °C) and equilibrated in HBSS for 10 min. […] After 10 min of incubation, cells were quickly washed three times with ice-cold HBSS and then lysed by the addition of 300 μL of purified water. The protein content was measured using the BCA protein assay kit. EZE and EZE-Ph were analyzed by LC-MS/MS.
The rates of substrate uptake were normalized using the protein contents of cell lysates.

MDR1 = molecular target: T1, MDR1 (Homo sapiens, UniProt P08183); experiment: Transport study with MDR1-expressing membrane vesicles; type: in vitro ADME; settings: 10 μM, 10 min
T1 construct: purchased GenoMembrane Co., Ltd. (Yokohama, Japan); host or cells: Sf9 insect cells
Experimental: (§3) Human MDR1-, MRP2-, and MRP3-expressing membrane vesicles isolated from Sf9 insect cells were sourced from GenoMembrane Co., Ltd. (Yokohama, Japan).
(§4) In transport studies, a modified rapid filtration technique was used according to the manufacturer’s protocol (GenoMembrane Co.). The uptake of test compounds (10 μM EZE or EZE-Ph) into membrane vesicles (100 μg protein/100 μL) was conducted with or without 4 mM ATP in the transport medium (50 μL, pH 7.4), which included 50 mM MOPS-Tris, 70 mM KCl, and 7.5 mM MgCl2. The vesicular transport was terminated after 10 min by adding 200 μL of ice-cold stop buffer containing 40 mM MOPS-Tris and 70 mM KCl. The stopped incubate was quickly transferred to a 96-well glass fiber filter plate (Millipore, MA, USA) and washed five times with ice-cold stop buffer. The EZE and EZE-Ph inside the vesicles were released by adding 200 μL of methanol–water (70:30, v/v) and analyzed by LC-MS/MS. The ATP-dependent transport was evaluated based on the ratio of transport with ATP to that without ATP.

MRP2 = molecular target: T2, MRP2 (Homo sapiens, UniProt Q92887); experiment: Transport study with MRP2-expressing membrane vesicles; type: in vitro ADME; settings: 10 μM, 10 min
T2 construct: purchased GenoMembrane Co., Ltd. (Yokohama, Japan); host or cells: Sf9 insect cells
Experimental: as §3, §4

MRP3 = molecular target: T3, MRP3 (Homo sapiens, UniProt O15438); experiment: Transport study with MRP3-expressing membrane vesicles; type: in vitro ADME; settings: 10 μM, 10 min
T3 construct: purchased GenoMembrane Co., Ltd. (Yokohama, Japan); host or cells: Sf9 insect cells
Experimental: as §3, §4

[3] = for Autosampler stability (4°C, 24 h), RE / Post-extraction stability (room temperature 3 h), RE / Freeze-thaw stability (−20°C, three cycles), RE / Short-term stability (room temperature 3 h), RE: n = 6; for Freeze-thaw stability (−20°C, three cycles), RE / Short-term stability (room temperature 3 h), RE: rat plasma
Experimental: The instrument parameters were as follows: ion spray voltage, −4500 V; source temperature, 550 °C; nebulizer gas, 60 psi; heater gas, 60 psi; and curtain gas, 40 psi. […] Data were acquired and processed with the Analyst 1.6.3 software (Applied Biosystems). The standard curve ranges were 1.00 to 1000 ng/mL for EZE, 3.00 to 3000 ng/mL for EZE-Ph, and 1.00 to 1000 ng/mL for EZE-Hy in plasma.
Summary of the stability of ezetimibe and its metabolites in rat plasma (n = 6).

[4] = iv, i.v. 10 mg/kg EZE, CCl4-induced rats
[5] = iv, i.v. 10 mg/kg EZE, control rats
[6] = po, p.o. 10 mg/kg EZE, CCl4-induced rats
[7] = po, p.o. 10 mg/kg EZE, control rats
[8] = oral administration of 10 mg/kg EZE

T3 sequence (O15438 whole entry): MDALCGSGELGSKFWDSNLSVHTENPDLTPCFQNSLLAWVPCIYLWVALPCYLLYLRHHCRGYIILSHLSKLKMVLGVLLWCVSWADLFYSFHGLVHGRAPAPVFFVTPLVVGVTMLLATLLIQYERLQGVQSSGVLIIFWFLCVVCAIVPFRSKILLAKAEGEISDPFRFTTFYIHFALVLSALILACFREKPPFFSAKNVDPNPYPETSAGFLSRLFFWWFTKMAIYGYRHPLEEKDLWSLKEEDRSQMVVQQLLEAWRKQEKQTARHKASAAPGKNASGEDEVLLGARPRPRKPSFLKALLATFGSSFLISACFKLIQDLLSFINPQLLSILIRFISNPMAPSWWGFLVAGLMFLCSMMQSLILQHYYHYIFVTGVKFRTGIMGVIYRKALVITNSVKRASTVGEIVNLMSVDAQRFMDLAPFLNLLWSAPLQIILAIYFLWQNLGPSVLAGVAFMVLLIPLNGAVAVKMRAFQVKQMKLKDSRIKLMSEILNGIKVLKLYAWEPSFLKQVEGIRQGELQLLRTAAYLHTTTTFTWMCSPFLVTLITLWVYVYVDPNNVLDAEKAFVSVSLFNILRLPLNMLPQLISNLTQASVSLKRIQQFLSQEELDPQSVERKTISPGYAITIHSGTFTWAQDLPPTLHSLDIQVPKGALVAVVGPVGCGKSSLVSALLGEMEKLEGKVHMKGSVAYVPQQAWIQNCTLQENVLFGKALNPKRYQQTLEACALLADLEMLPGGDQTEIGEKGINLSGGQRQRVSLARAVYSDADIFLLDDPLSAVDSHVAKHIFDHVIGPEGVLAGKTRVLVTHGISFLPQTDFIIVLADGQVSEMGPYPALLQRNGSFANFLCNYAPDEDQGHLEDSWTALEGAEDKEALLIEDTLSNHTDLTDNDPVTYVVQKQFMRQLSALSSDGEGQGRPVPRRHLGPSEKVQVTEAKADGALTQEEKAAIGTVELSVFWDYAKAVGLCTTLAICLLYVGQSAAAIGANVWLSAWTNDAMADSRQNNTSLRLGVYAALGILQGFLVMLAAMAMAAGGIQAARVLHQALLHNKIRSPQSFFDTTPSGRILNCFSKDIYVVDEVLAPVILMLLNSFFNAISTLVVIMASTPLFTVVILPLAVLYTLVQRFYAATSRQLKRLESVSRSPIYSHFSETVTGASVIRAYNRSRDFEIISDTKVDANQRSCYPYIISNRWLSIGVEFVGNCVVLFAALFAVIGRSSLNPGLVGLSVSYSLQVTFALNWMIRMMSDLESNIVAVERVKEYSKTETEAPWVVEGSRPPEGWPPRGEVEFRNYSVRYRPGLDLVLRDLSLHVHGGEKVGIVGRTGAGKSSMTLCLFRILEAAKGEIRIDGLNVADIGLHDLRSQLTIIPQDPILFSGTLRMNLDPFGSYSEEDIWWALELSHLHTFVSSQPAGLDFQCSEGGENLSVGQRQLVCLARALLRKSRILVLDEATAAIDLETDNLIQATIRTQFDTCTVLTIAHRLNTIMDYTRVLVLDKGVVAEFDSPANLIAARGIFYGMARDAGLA
T1 sequence (P08183 whole entry): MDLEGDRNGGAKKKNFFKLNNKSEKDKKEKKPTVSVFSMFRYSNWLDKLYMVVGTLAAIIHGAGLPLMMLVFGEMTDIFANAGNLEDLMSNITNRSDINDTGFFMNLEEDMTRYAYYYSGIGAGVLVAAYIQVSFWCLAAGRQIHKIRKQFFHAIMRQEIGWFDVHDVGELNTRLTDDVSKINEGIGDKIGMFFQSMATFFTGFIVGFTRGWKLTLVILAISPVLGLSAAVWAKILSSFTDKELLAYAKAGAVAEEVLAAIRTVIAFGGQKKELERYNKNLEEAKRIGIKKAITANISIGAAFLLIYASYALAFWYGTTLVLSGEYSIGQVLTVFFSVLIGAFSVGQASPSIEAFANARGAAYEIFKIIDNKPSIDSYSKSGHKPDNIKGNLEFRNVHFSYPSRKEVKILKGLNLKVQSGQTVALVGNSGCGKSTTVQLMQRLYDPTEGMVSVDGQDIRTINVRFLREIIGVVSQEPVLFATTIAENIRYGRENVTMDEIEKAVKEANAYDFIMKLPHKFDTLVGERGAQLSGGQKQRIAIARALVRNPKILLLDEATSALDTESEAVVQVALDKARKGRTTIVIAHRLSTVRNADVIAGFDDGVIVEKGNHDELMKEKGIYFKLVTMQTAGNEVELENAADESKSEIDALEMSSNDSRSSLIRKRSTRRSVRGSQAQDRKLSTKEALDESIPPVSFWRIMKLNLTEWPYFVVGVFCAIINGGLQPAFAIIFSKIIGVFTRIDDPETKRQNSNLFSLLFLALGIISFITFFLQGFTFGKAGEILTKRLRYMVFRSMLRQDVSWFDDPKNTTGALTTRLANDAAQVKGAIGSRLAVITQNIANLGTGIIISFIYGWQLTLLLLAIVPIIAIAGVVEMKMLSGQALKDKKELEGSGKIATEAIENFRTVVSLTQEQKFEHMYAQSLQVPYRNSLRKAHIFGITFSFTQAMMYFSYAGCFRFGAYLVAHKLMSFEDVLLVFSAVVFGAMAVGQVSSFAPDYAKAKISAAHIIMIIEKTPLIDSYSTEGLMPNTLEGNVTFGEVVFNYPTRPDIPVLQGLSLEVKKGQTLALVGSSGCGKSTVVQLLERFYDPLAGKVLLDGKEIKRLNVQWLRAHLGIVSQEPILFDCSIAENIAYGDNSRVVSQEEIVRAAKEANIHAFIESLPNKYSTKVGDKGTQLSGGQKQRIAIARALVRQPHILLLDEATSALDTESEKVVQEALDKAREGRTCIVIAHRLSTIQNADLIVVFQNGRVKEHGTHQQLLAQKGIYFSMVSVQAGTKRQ
T2 sequence (Q92887 whole entry): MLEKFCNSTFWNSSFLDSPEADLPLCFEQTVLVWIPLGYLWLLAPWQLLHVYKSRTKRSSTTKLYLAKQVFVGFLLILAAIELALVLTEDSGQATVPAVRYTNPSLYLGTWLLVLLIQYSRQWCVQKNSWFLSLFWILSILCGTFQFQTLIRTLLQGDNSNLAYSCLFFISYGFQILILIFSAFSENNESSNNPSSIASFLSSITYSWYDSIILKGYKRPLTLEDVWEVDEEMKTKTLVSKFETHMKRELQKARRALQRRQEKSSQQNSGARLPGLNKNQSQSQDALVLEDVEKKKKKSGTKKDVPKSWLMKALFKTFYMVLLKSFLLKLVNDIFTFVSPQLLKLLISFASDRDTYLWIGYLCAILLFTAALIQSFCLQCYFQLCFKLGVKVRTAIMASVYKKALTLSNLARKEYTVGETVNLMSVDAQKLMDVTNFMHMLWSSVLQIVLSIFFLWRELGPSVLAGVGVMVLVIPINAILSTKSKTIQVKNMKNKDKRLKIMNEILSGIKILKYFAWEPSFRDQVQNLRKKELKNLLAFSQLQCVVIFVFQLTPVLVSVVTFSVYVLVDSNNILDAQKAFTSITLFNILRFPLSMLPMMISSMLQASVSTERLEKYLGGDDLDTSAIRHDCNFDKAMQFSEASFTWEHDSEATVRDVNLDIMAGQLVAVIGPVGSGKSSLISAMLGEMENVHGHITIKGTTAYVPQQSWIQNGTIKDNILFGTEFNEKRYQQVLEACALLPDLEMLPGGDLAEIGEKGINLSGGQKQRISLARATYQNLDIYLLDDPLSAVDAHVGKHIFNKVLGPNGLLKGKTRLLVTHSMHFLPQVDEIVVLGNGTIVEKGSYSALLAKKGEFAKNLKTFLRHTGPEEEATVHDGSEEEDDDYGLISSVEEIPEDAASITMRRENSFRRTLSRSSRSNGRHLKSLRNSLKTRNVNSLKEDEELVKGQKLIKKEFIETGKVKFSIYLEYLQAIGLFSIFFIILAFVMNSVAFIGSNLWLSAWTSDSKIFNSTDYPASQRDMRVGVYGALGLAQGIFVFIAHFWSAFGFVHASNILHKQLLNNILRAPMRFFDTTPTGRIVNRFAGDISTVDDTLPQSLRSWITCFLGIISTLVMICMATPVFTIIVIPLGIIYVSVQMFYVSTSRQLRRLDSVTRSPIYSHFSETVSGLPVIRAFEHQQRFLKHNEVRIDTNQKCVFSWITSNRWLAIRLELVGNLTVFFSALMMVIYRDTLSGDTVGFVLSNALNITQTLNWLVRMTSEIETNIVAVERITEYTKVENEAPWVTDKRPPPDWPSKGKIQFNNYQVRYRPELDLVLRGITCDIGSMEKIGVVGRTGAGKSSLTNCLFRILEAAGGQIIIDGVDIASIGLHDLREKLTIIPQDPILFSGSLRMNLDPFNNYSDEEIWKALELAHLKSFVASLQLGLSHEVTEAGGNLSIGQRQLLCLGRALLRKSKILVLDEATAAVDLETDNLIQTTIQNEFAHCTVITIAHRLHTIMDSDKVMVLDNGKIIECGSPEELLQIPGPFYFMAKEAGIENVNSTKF

O=C1[C@H](CC[C@H](O)c2ccc(F)cc2)[C@@H](c2ccc(O)cc2)N1c1ccc(F)cc1 [EZE, 1-(4-fluorophenyl)-3(R)-[3-(4-fluorophenyl)-3(S)-hydroxypropyl]-4(S)-(4-hydroxyphenyl)-2-azetidinone, reference compound]
AUC(0-t) [1, 4]: 4610 ± 781 ng·h/mL
half-life [1, 4]: 7.67 ± 3.08 h
Cmax at 5 min [1, 4]: 2950 ± 571 ng/mL
AUC(0-t) [1, 5]: 2180 ± 304 ng·h/mL
half-life [1, 5]: 6.76 ± 3.31 h
Cmax at 5 min [1, 5]: 1560 ± 361 ng/mL
AUC(0-t) [1, 6]: 189 ± 66 ng·h/mL
Cmax [1, 6]: 20.4 ± 8.1 ng/mL
Tmax [1, 6]: 5.2 ± 3.9 h
half-life [1, 6]: 12.3 ± 5.3 h
AUC(0-t) [1, 7]: 17 ± 10 ng·h/mL
Cmax [1, 7]: 2.63 ± 2.68 ng/mL
Tmax [1, 7]: 4.95 ± 4.84 h
half-life [1, 7]: 5.56 ± 3.78 h
AUC0–t, fold higher in CCl4-induced rats than in control rats ([1]; intravenous injection of 10 mg/kg EZE): 2.1 fold
AUC0–t, fold higher in CCl4-induced rats than in control rats [1, 8]: 11.1 fold
share in plasma relative to the main circulating component EZE-Ph [1, 8]: 0.4%
AUC(0-t) ([2]; femoral vein plasma, CCl4-induced rats, read-out: AUC0–t in femoral vein plasma): 191 ng·h/mL
AUC(0-t) ([2]; femoral vein plasma, control rats, read-out: AUC0–t in femoral vein plasma): 56.2 ng·h/mL
AUC(0-t) ([2]; portal vein plasma, CCl4-induced rats, read-out: AUC0–t in portal vein plasma): 352 ng·h/mL
AUC(0-t) ([2]; portal vein plasma, control rats, read-out: AUC0–t in portal vein plasma): 1850 ng·h/mL
AUC0-t in portal vein, decrease in CCl4-induced rats compared with control rats [2]: 81.0%
AUC0–t portal vein plasma vs femoral vein plasma, fold higher ([2]; CCl4-induced rats): 1.84 fold
AUC0–t portal vein plasma vs femoral vein plasma, fold higher ([2]; control rats): 33.0 fold
time of second absorption peak ([2]; control rats): 9.5 h
increase of residue of EZE in CCl4-induced rats compared with control rats (UGTs; liver S9, 0.3 μM EZE): 4.15 fold
increase of residue of EZE in CCl4-induced rats compared with control rats (UGTs; liver S9, 3 μM EZE): 5.00 fold
increase of residue of EZE in CCl4-induced rats compared with control rats (UGTs; liver S9, 30 μM EZE): 1.40 fold
temperature dependence of uptake into isolated rat hepatocytes (rat primary hepatocytes): independent of temperature
ATP-dependent transport via MDR1 membrane vesicles (MDR1): No significant ATP-dependent transport
ATP-dependent transport via MRP2 membrane vesicles (MRP2): No significant ATP-dependent transport
ATP-dependent transport via MRP3 membrane vesicles (MRP3): No significant ATP-dependent transport
Autosampler stability (4°C, 24 h), RE ([3]; HQC (800/2400/800 ng/ml)): 3.9%
Post-extraction stability (room temperature 3 h), RE ([3]; HQC (800/2400/800 ng/ml)): 3.9%
Autosampler stability (4°C, 24 h), RE ([3]; LQC (3.00/9.00/3.00 ng/ml)): 0.6%
Post-extraction stability (room temperature 3 h), RE ([3]; LQC (3.00/9.00/3.00 ng/ml)): 0.7%
stability in rat plasma under the test conditions ([3]; LQC and HQC samples, short-term, post-extraction, auto-sampler, three freeze/thaw cycles): stable
Freeze-thaw stability (−20°C, three cycles), RE ([3]; HQC (800/2400/800 ng/ml)): 1.1%
Short-term stability (room temperature 3 h), RE ([3]; HQC (800/2400/800 ng/ml)): -5.6%
Freeze-thaw stability (−20°C, three cycles), RE ([3]; LQC (3.00/9.00/3.00 ng/ml)): -1.0%
Short-term stability (room temperature 3 h), RE ([3]; LQC (EZE/EZE-Ph/EZE-Hy 3.00/9.00/3.00 ng/ml)): -11.2%
stability in blood ([3]; room temperature for 2 h): stable
